Patent US5852017A, “2,3(1H,4H)-quinoxalinediones” (BASF Aktiengesellschaft, priority 1992, dated 1998)

Columns and labels:
AMPA receptors = assay: Binding of 3H-AMPA to rat cerebra membrane material; details: displacement of 3H-AMPA, membrane material from rat cerebra, incubated on ice for 60 minutes
Protocol: (§1) The pharmacological activity of the compounds I and I' according to the invention was investigated on membrane material isolated from rat cerebra. To do this, the membrane material was treated in the presence of the compounds according to the invention with the radio-labeled substances ^3 H-2-amino-3-hydroxy-5-methyl-4-isoxazolepropionic acid (^3 H-AMPA) and ^3 H-5,7-dichlorokynurenic acid, which bind to specific receptors (AMPA and NMDA (N-methyl-D-aspartate) receptors respectively). The radioactivity of the treated membranes was then measured by scintillation counting. The amounts of bound ^3 H-AMPA and ^3 H-5,7-dichlorokynurenic acid, or the amounts of these radiolabeled substances displaced in each case, can be determined from the bound radioactivity. The resulting dissociation constant KI (I=inhibitor), which is a measure of the displacement by the active substance according to the invention, was calculated by iterative non-linear regression analysis with the statistical analysis system (SAS) on an IBM computer, similar to the "Ligand" program of P. J. Munson and D. Rodbard (Analytical Biochem. 107, (1980) 220, Ligand: Versatile Computerized Approach for Characterization of Ligand Binding Systems).
1. Binding of ^3 H-2-amino-3-hydroxy-5-methyl-4-isoxazolepropionic acid (^3 H-AMPA) […]

[1] = target: NMDA (N-methyl-D-aspartate) receptors; assay: Binding of 3H-5,7-dichlorokynurenic acid to rat cerebra membrane material; details: displacement of 3H-5,7-dichlorokynurenic acid, membrane material from rat cerebra, incubated on ice for 30 minutes
Protocol: as §1
2. Binding of ^3 H-5,7-dichlorokynurenic acid […]

| Ki (AMPA receptors) [µM] | Ki [1] [µM] | Structure (SMILES) |
| --- | --- | --- |
| < 10 | – | O=c1[nH]c2cc(Cl)c(-n3cccc3)cc2[nH]c1=O [Example 1, 7-Chloro-6-(1-pyrrolyl)-2,3(1H,4H)-quinoxalinedione] |
| – | < 10 | O=c1[nH]c2cc(-n3cccc3)c(C(F)(F)F)cc2[nH]c1=O [Example 2, 6-(1-Pyrrolyl)-7-trifluoromethyl-2,3(1H,4H)-quinoxalinedione] |
